Data: article PMC9024363, “Study on the Biochemical Characterization and Selectivity of Three β-Glucosidases From Bifidobacterium adolescentis ATCC15703” (Frontiers in Microbiology, 2022)
Blank lines part the entries; values can stand above or below the compound they belong to.

Key:
Format in all cases: biochemical
[1] = biological target: T1, BaBgl3A (Bifidobacterium adolescentis, UniProt A1A2P2); test: TLC and HPLC of products; conditions: optimum pH, 37 °C, 2 h; 5 mg/ml substrate
T1 construct: gene BAD_1194; GH3; N-terminus from primer MSENTY
T1 sequence (A1A2P2 1-751): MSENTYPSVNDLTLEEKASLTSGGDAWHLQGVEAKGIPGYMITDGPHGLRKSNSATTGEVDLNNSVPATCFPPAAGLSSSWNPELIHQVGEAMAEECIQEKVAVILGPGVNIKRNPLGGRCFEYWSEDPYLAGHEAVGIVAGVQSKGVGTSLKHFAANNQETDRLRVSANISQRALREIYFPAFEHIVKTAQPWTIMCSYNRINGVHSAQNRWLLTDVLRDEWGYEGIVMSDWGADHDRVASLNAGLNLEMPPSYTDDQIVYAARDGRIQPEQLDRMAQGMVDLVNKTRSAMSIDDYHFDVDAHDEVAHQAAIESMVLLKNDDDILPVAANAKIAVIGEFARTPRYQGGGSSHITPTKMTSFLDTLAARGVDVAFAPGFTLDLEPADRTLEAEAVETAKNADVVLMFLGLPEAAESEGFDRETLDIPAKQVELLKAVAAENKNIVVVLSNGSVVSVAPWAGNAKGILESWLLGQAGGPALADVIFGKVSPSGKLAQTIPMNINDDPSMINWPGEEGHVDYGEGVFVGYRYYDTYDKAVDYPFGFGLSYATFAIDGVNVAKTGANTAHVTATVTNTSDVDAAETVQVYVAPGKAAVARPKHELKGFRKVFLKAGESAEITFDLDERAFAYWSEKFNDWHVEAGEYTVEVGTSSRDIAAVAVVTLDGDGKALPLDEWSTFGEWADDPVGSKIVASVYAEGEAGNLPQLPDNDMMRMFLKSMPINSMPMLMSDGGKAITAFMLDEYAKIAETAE

[2] = biological target: T2, BaBgl1A (Bifidobacterium adolescentis, UniProt A1A2Y5); test: pNPβGlc hydrolysis, absorbance […] nm; conditions: competitive; pNPβGlc substrate; optimum pH 6.0, 30 °C
T2 construct: gene BAD_1287; GH1; N-terminus from primer MKEQYE
T2 sequence (A1A2Y5 1-391): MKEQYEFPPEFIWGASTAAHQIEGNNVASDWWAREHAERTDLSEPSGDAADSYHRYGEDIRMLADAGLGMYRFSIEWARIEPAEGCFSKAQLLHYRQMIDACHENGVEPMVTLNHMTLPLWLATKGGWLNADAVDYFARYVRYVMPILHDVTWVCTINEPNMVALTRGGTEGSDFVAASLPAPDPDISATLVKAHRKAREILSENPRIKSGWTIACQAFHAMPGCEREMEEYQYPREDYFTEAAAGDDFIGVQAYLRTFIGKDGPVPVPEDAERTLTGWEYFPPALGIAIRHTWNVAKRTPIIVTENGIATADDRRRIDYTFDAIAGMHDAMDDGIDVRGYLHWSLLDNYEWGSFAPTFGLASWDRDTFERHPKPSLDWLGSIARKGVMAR

[3] = biological target: T3, BaBgl3B (Bifidobacterium adolescentis, UniProt A1A2P5); test: pNPβGlc hydrolysis, absorbance […] nm; conditions: competitive; pNPβGlc substrate; optimum pH 6.5, 50 °C
T3 construct: gene bglX; GH3; N-terminus from primer MSSCGC
T3 sequence (A1A2P5 1-809): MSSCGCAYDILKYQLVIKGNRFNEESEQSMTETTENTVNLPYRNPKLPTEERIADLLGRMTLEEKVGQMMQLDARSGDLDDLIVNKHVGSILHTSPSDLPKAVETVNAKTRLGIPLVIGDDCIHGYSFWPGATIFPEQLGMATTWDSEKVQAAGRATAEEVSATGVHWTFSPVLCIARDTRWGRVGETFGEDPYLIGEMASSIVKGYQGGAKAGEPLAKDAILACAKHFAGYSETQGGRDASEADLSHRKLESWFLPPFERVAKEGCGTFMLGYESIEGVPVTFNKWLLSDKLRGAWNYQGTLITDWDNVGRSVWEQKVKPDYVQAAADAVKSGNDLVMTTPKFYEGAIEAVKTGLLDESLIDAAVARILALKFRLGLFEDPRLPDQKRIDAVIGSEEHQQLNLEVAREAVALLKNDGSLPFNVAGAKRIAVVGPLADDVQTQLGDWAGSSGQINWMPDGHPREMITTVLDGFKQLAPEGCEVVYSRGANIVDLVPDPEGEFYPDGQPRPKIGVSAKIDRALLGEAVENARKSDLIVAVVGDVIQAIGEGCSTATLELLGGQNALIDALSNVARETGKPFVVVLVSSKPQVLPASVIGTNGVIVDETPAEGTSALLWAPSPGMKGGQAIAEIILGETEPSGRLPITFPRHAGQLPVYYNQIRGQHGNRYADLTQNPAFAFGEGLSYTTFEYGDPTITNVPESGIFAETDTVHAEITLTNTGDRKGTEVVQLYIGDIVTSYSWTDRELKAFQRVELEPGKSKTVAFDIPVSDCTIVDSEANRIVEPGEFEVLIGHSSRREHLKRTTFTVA

[4] = biological target: T3, BaBgl3B; test: pNPβGlc hydrolysis, absorbance […] nm
[5] = biological target: T2, BaBgl1A; test: pNPβGlc hydrolysis, absorbance […] nm

Compound: CC(C)=CCC[C@](C)(O[C@@H]1O[C@H](CO[C@@H]2O[C@H](CO)[C@@H](O)[C@H](O)[C@H]2O)[C@@H](O)[C@H](O)[C@H]1O)[C@H]1CC[C@]2(C)[C@@H]1[C@H](O)C[C@@H]1[C@@]3(C)CC[C@H](O[C@@H]4O[C@H](CO)[C@@H](O)[C@H](O)[C@H]4O[C@@H]4O[C@H](CO)[C@@H](O)[C@H](O)[C@H]4O)C(C)(C)[C@@H]3CC[C@]12C [Rb1]
TLC and HPLC of products [1]: Rb1 could be converted into Rd and Gyp XVII by BaBgl3A

Compound: OCC1(O)OC[C@@H](O)[C@@H](O)[C@@H]1O (some centres unmarked) [fructose]
% inhibition [2]: mannose and fructose acted as competitive inhibitors for BaBgl1A and BaBgl3B
% inhibition [3]: mannose and fructose acted as competitive inhibitors for BaBgl1A and BaBgl3B

inhibition at 1 M [4]: > 70%
inhibition at 1 M [5]: > 70%
Compound: OC[C@H]1OC(O)[C@@H](O)[C@@H](O)[C@@H]1O (some centres unmarked) [mannose]
